Values of other authors in patent US7605180B2, “Nateglinide-containing preparation” (Ajinomoto Co., Inc., priority 2000, dated 2009).

Experiments:
[1] = test system: blood glucose; details: oral administration

- Water solubility: poorly water soluble
SMILES: CC(C)[C@H]1CC[C@H](C(=O)N[C@H](Cc2ccccc2)C(=O)O)CC1 [nateglinide, N-(trans-4-isopropylcyclohexylcarbonyl)-D-phenylalanine]
- Blood glucose-lowering effect [1]: excellent blood glucose-lowering effect
